Assay results taken from paper PMC2898832, “Active site plasticity revealed from the structure of the enterobacterial N-ribohydrolase RihA bound to a competitive inhibitor” (2010).

Biological target: T1, RihA (Escherichia coli, UniProt P41409)
T1 construct: full-length rihA (936 bp) from E. coli K12 derivative DH5α; N-terminal His-tag removed with thrombin; tetramer
Test: X-ray co-crystal structure at […] Å; KI from competitive inhibition of uridine hydrolysis by purified enzyme
Format: biochemical

T1 sequence (P41409 whole entry): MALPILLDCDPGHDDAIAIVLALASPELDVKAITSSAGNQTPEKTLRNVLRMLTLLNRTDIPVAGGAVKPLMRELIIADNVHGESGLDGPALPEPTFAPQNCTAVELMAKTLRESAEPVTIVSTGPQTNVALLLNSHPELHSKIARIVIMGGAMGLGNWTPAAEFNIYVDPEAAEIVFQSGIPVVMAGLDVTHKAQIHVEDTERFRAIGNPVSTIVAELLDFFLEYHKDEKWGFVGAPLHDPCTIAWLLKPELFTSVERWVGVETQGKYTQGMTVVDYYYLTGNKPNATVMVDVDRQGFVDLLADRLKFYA

With `Nc1ccc([C@@H]2N[C@H](CO)[C@@H](O)[C@H]2O)cc1N` [DAPIR] the Ki was 85 ± 7 µM.
